Data set [1] can be described thus: Concentration range of N,N'-dialkylaldaramides or N,N'-dialkylpentaramides in solvents. In kind it is physicochemical. The source says:
(§1) Preferred examples include aromatic and non-aromatic hydrocarbons, alcohols, ethers, esters, aldehydes, alkanoic acids, epoxides, amines, halogenated hydrocarbons, silicon oils, vegetable oils, phosphoric esters, sulfoxides and mixtures thereof. The compound also produces a gel in hydrophilic solvents such as water. The choice of composition for gelling can be tuned to the invented use. For instance in situations where clinical application of a vehicle of the invention is intended biocompatibility of the composition is preferred. In order to obtain a gel, the gelling agent or thickener is preferably mixed with the composition to be transformed to a gel in an amount of between 0.01 and 50 wt.%, based on the weight of the composition. In a preferred embodiment the mixture of the gelling agent or thickener and the composition is heated to allow for an even better gel formation or thickening. Typically, the heating will involve raising the temperature of the mixture to about 30 - 175 °C until a clear solution is obtained. In an alternative embodiment, the gelling agent is first dissolved in a polar or apolar solvent and then added to or sprayed into a composition or solvent to be converted into a gel.

Data set [2] in a line: Solvent scope of N,N'-dialkylaldaramides or N,N'-dialkylpentaramides (gelation behaviour in solvents). In kind it is physicochemical.
From the text: It will be understood that the use of the present gelling agents or thickeners to prepare a gel or to thicken a composition is also encompassed by the invention. As is well-known, gelling behavior of compounds or compositions is highly unpredictable. […] Preferably, the gelling phenomenon is thermoreversible.
as §1

A short description of data set [3]: Gelation experiment with dithienylcyclopentene derivatives (heat, cool, no gravitational flow; UV-vis/CD). To be noted: for Solvents in which gelation did occur: cooling to room temperature, 1 ml solvent. In kind it is physicochemical. The protocol: In a typical gelation experiment, a carefully weighed amount of the dithienylcyclopentene derivative under investigation and 1 ml of the solvent are placed in a test tube, which is sealed and then heated until the compound is dissolved. The solution is allowed to cool to room temperature. […] The gelation process could be followed by UV-vis and CD spectroscopy as depicted in Figure 23. […] Increasing the concentration to 1.8 mM causes gelation of the solvent, which is accompanied by a change of the UV-visible spectrum, together with the appearance of a strong CD signal at 323 nm (Figure 22 A and B). Similar changes in the UV-vis and CD spectrum are observed upon gelation of the 1.8 mM solution of D in toluene by cooling to a temperature below the sol-gel phase transition(from here on referred to as gel(o). From a plot of the increase of the CD signal versus the temperature the sol-gel phase transition temperature of gel(o) was determined to be 29°C for a 1.8 mM solution of D in toluene.

A short description of data set [4]: Photoswitching of a gel of compound D. In kind it is physicochemical. As to the method: In a typical photoswitching experiment a solution (1.8 mM) of Compound D in toluene was prepared by cooling from 70°C to the desired temperature (typically between 30°C and 60°C, i.e. above the gel-sol phase transition temperature of the open form of D) in a cuvette of 1 mm path length. This solution was then irradiated at λ1 = 313 nm to convert the ring-open form of Compound D to the ring-closed form. By using a 150 W Xe lamp and a 313 nm bandpass filter, the photostationary state (PSS) was reached typically within 10 minutes, which consist of 60mol% of the closed form and 40mol% of the open form.
Gels of the closed form of D can also be dissolved by converting the closed form to the open form by irradiation with light of wavelength □□. Irradiation of gel(c,I) or gel(c,II) with □□ > 450 nm at while keeping the temperature between 30°C and 60°C causes dissolution of the gel to give a solution of the open form D, of which the UV-vis and CD spectra are identical to that of the starting solution. This process of gelation-dissolution by alternating irradiations with UV (313 nm) and Vis (> 450 nm) light can be repeated many times, showing that the photo-induced gelation process is fully reversible. In another experiment a solution (1.8 mM) of Compound D in toluene was prepared by cooling from 70°C to a temperature below the gel-sol phase transition temperature of the open form of (typically between 20°C and 29°C) in a cuvette of 1 mm path length.

Data set [5] relates to COS-7 cells. The experiment in a line: Transfection of COS-7 cells with β-galactosidase reporter plasmid. In kind it is cell-based. As to the method: Transfections are carried out following standard protocols as is described in EP 0755924. In numerous publications variations of transfection protocols are given. A person acquainted with the field of non-viral transfections, in particular transfections using cationic amphiphiles will be able to use the cationic amphiphiles of the invention in transfection methods known per se. In standard experiments COS-7 cells are transfected with plasmid DNA containing the β-galactosidase reporter gene. Upon successful transfection the cell produces the enzyme β-galactosidase whose activity can be easily measured. […] Toxicity of the cationic amphiphiles towards the cells can be monitored qualitatively and quantitatively by visual inspection of the cells and by a protein determination.
[…] The plasmid concentration was determined by measuring the absoption at 260 nm using the relation 1.0 OD = 50 µg/ml. […]
The complex of cationic amphiphile/DOPE (1:1) with pCMV β-gal was prepared at the charge ratio 2.5:1 (15 nmol lipid and 1 µg DNA), in 100µl 10 mM HEPES (pH=7.4, 150 mM NaCl). […] Control wells underwent identical steps except that no cationic amphiphile was added. β-galactosidase activity was observed whereas in control wells no activity was detected. […]

Data set [6] has as its system COS-7 cells. Kind of data set: Toxicity of cationic amphiphile towards the cells (protein determination). In kind it is cell-based. Particulars: protein determination compared with control wells. The protocol: Transfections are carried out following standard protocols as is described in EP 0755924. In numerous publications variations of transfection protocols are given. A person acquainted with the field of non-viral transfections, in particular transfections using cationic amphiphiles will be able to use the cationic amphiphiles of the invention in transfection methods known per se. In standard experiments COS-7 cells are transfected with plasmid DNA containing the β-galactosidase reporter gene. Upon successful transfection the cell produces the enzyme β-galactosidase whose activity can be easily measured. Other plasmids comprising alternative reporter genes such as the gene encoding Green Fluoerscent Protein or Chloroamphenicol Acetyl Transferase are suited as well. For analyzing stable transfection a plasmid containing the neomycin resistance gene can be used. Toxicity of the cationic amphiphiles towards the cells can be monitored qualitatively and quantitatively by visual inspection of the cells and by a protein determination.
The complex of cationic amphiphile/DOPE (1:1) with pCMV β-gal was prepared at the charge ratio 2.5:1 (15 nmol lipid and 1 µg DNA), in 100µl 10 mM HEPES (pH=7.4, 150 mM NaCl). […] Control wells underwent identical steps except that no cationic amphiphile was added. β-galactosidase activity was observed whereas in control wells no activity was detected.

The mark [7] stands for this setting: 1.8 mM in toluene, irradiation at 313 nm.

For the compound `O=C(NC1CCCCC1)[C@@H](O)[C@@H](O)[C@H](O)[C@@H](O)C(=O)NC1CCCCC1` [Compound C6GluC6, dicyclohexyl glucaramide], the Concentration range was less than 5.0% in data set [1] (1,2- Dichloroethane); less than 2.5% in data set [1] (Cyclohexane); less than 2.5% in data set [1] (Dow Corning 702); less than 2.5% in data set [1] (Methyllaurate); less than 2.5% in data set [1] (Toluene); less than 2.5% in data set [1] (n-Butylacetate). Moreover, the Solvent scope result in data set [2] (1,2-Dichloro-ethane) is recorded as “g/c”; in data set [2] (Dimethylsulfoxide), “g/c”; in data set [2] (Ethanol), “g/c”; in data set [2] (water), “n.s”.
Regarding `O=C(NC1CCCCCCCCCCC1)[C@@H](O)[C@@H](O)[C@H](O)[C@@H](O)C(=O)NC1CCCCCCCCCCC1` [Compound C12GluC12, dicyclododecyl glucaramide], the Concentration range in data set [1] (1,2- Dichloroethane) was less than 50%; in data set [1] (Cyclohexane) it was less than 5%; in data set [1] (Dow Corning 702), less than 50%; in data set [1] (Methyllaurate), less than 5%; in data set [1] (Toluene) it was less than 50%; in data set [1] (n-Butylacetate), less than 50%. Moreover, the Solvent scope result in data set [2] (Dimethylsulfoxide) is “g/c”; in data set [2] (Ethanol) it was “g/c”; in data set [2] (water), “n.s”.
Turning to `Cc1sc(C(=O)N[C@H](C)C2CCCCC2)cc1C1=C(c2cc(C(=O)N[C@H](C)C3CCCCC3)sc2C)CCC1` [Compound E, 1,2-Bis(2'-methyl-5'-{[((R)-1-cyclohexylethyl)amino]carbonyl}thien-3'-yl)cyclopentene], the “Solvents in which gelation did occur” value in data set [3] is “hexadecane, cyclohexane, 1-phenyloctane, toluene, n-butylether, benzene, tetralin, 1,4-dioxane, and n-butyl acetate”.
On to `CCCCCCCCCCCCNC(=O)[C@@H](O)[C@H](O)[C@H](O)[C@@H](O)C(=O)NCCCCCCCCCCCC` [Compound 12Gal12, didodecyl galactaramide], for which the Solvent scope result in data set [2] (1,2-Dichloro-ethane), in data set [2] (Cyclohexane), in data set [2] (Ethanol), in data set [2] (Toluene), in data set [2] (n-Butylacetate) and in data set [2] (water) was “n.s” each time.
On to `Cc1sc(C(=O)N[C@H](C)c2ccccc2)cc1C1=C(c2cc(C(=O)N[C@H](C)c3ccccc3)sc2C)CCC1` [Compound D, 1,2-Bis(2'-methyl-5'-{[((R)-1-phenylethyl)amino]carbonyl}thien-3'-yl)cyclopentene], for which the “sol-gel phase transition temperature of gel(c,I)” value in data set [4] (1.8 mM in toluene after irradiation at 313 nm) stood at 62 °C. Also, the “Time without gel formation, solutions kept in the dark” value in data set [4] (1.8 mM in toluene, between 20°C and 29°C, not irradiated) is greater than 1 h. Besides, in data set [4] (setting [7]), the “closed form in the photostationary state (PSS)” value was determined as 60 mol% and the “open form in the photostationary state (PSS)” value stood at 40 mol%. In data set [4] (1.8 mM in toluene, irradiation at 313 nm, 150 W Xe lamp), the “Time to reach the photostationary state (PSS)” value was no more than 10 min. Moreover, the “Increase of thermal stability compared to gel(o)” value in data set [4] (gel(c,I), toluene) was “more than 30 °C”. Moreover, in data set [3] (1.8 mM solution in toluene, open form, from CD signal versus temperature), the “sol-gel phase transition temperature of gel(o)” value amounted to 29 °C. Besides, the “Concentration that causes gelation of the solvent” value in data set [3] (Toluene) was determined as 1800 µM. For the same compound, in data set [3], the “Solvents in which gelation did occur” value is given as “cyclohexane, 1-phenyloctane, toluene, n-butyl ether, benzene, tetralin”.
In the case of `Cc1sc(C(=O)Nc2ccccc2)cc1C1=C(c2cc(C(=O)Nc3ccccc3)sc2C)CCC1` [Compound C, 1,2-Bis(5'-(anilinocarbonyl)-2'-methyl-thien-3'-yl) cyclopentene], the “Solvents in which gelation did occur” value in data set [3] is 1-phenyloctane, toluene, n-butylether, benzene, tetralin.
Take “1-(9'-cis-octadecenyl)-4-(10"-cis-nonadecenyl) pyridinium Chloride”: the β-galactosidase activity entry with COS-7 cells [5] (cationic amphiphile/DOPE (1:1) with pCMV β-gal, charge ratio 2.5:1, assay 48 later) was “observed”. Also, the “β-galactosidase activity compared with Lipofectin™” value with COS-7 cells [5] (cationic amphiphile/DOPE (1:1), charge ratio 2.5:1) is reported as “substantially higher”. For the same compound, the “toxicity towards the cells” value in the data set with COS-7 cells [6] was “no toxicity”.
In the case of `CC(C)=CCCC(C)CCNC(=O)[C@@H](O)[C@@H](O)[C@H](O)[C@@H](O)C(=O)NCCC(C)CCC=C(C)C` (stereo partly shown) [CitGluCit, dicitronellyl glucaramide], the Solvent scope result in data set [2] (Cyclohexane) is “g. ,c*”.

The record behind these values is patent EP1350507A1, “Delivery of a substance to a pre-determinated site” (Applied NanoSystems B.V., priority 2002, dated 2003).
